In ChEMBL document CHEMBL1649214, “Antimalarial activity of tigecycline, a novel glycylcycline antibiotic” (Antimicrob Agents Chemother, 2009):

Experiments:
Plasmodium falciparum [1] = test: Antimalarial activity against Plasmodium falciparum isolates assessed as parasite growth inhibition after 72 hrs by ELISA based histidine-rich protein 2 in vitro drug susceptibility assay; type: functional, organism-based
Plasmodium falciparum [2] = test: Ratio of IC50 for Plasmodium falciparum isolates after 72 hrs to IC50 for Plasmodium falciparum isolates after 24 hrs by ELISA based histidine-rich protein 2 in vitro drug susceptibility assay; type: functional

SMILES: C[C@H]1[C@@H](O)O[C@@H]2O[C@@]3(C)CC[C@H]4[C@H](C)CC[C@@H]1[C@@]24OO3 [ARTENIMOL]
- IC50 (Plasmodium falciparum [1]): 0.77 nM
- IC90 (Plasmodium falciparum [1]): 2.76 nM
- IC99 (Plasmodium falciparum [1]): 0.004 µM

SMILES: CC[C@H]1OC(=O)[C@H](C)[C@@H](O[C@H]2C[C@@](C)(OC)[C@@H](O)[C@H](C)O2)[C@H](C)[C@@H](O[C@@H]2O[C@H](C)C[C@H](N(C)C)[C@H]2O)[C@](C)(O)C[C@@H](C)CN(C)[C@H](C)[C@@H](O)[C@]1(C)O [AZITHROMYCIN]
- IC50 (Plasmodium falciparum [1]): 4310 nM
- IC90 (Plasmodium falciparum [1]): 18400 nM
- IC99 (Plasmodium falciparum [1]): 26.7 µM

SMILES: CCN(CC)CCCC(C)Nc1ccnc2cc(Cl)ccc12 (configuration not stated) [CHLOROQUINE]
- IC90 (Plasmodium falciparum [1]): 303 nM
- IC99 (Plasmodium falciparum [1]): 0.436 µM

SMILES: C[C@H]1c2cccc(O)c2C(=O)C2=C(O)[C@]3(O)C(=O)C(C(N)=O)=C(O)[C@@H](N(C)C)[C@@H]3[C@@H](O)[C@@H]21.O [DOXYCYCLINE]
- IC50 (Plasmodium falciparum [1]): 4280 nM
- IC90 (Plasmodium falciparum [1]): 19400 nM
- IC99 (Plasmodium falciparum [1]): 27.2 µM
- Ratio IC50 (Plasmodium falciparum [2]): 13

SMILES: OC(c1cc(C(F)(F)F)nc2c(C(F)(F)F)cccc12)C1CCCCN1 (configuration not stated) [MEFLOQUINE]
- IC50 (Plasmodium falciparum [1]): 14.4 nM
- IC90 (Plasmodium falciparum [1]): 64 nM
- IC99 (Plasmodium falciparum [1]): 0.106 µM

SMILES: C=C[C@H]1CN2CC[C@H]1C[C@H]2[C@H](O)c1ccnc2ccc(OC)cc12 [QUININE]
- IC50 (Plasmodium falciparum [1]): 106 nM
- IC90 (Plasmodium falciparum [1]): 441 nM
- IC99 (Plasmodium falciparum [1]): 0.673 µM

SMILES: CN(C)c1cc(NC(=O)CNC(C)(C)C)c(O)c2c1C[C@H]1C[C@H]3[C@H](N(C)C)C(O)=C(C(N)=O)C(=O)[C@@]3(O)C(O)=C1C2=O [TIGECYCLINE]
- IC50 (Plasmodium falciparum [1]): 699 nM
- IC90 (Plasmodium falciparum [1]): 5910 nM
- IC99 (Plasmodium falciparum [1]): 12.4 µM
- Ratio IC50 (Plasmodium falciparum [2]): 49
